One series relates to miR-130/301 family. In words: RT-qPCR of miR-130/301 family members after transfection of oligonucleotide inhibitors (specificity), PASMCs. The class given is cell-based, human. To be noted: normoxia and hypoxia. The text has this: FIGS. 14A-14C show the comparison of the specificity of miR-130/301 oligonucleotide inhibitors. (FIG. 14A) Overview of the miRNA silencing approach using seed-targeting tiny locked nucleic acid (LNA) molecules. Tiny LNAs were designed as fully LNA-modified oligonucleotides complementary to the seed region of the miR-130/301 family. The high binding affinity of tiny LNA enables functional inhibition of co-expressed members of miRNA seed families, which leads to de-repression of target mRNAs. Sequences shown in FIG. 14A are miR-130a (SEQ ID NO: 4), miR-130b (SEQ ID NO: 5), miR-301a (SEQ ID NO: 6), miR-301b (SEQ ID NO: 7) and tiny-LNA-130 ([…] SEQ ID NO: 3). […] In the setting of exposure to hypoxia (0.2% O2; 24 h) or normoxia (21% O2; 24 h), expression levels of miR-130/301 family members in PAECs (FIG. 14B) and PASMCs (FIG. 14C) were quantified after transfection with anti-miR-130a versus control (anti-miR-NC) (left panels) or tiny-LNA-130 versus control (tiny-LNA-NC) (right panels). […]
Cells were homogenized in 2 ml of QiaZol reagent (Qiagen). […] Total RNA concentration was determined using a ND-1000 micro-spectrophotometer (NanoDrop Technologies).
Mature miRNA expression was evaluated using TaqMan MicroRNA Assays (Life Technologies/Applied Biosystems) and the Applied Biosystems 7900HT Fast Real Time PCR device (Life Technologies/Applied Biosystems). […]

The subject of the next series is PASMCs. In words: Caspase 3/7 assay, PASMCs. The class given is cell-based, human. As to the method: Caspase 3,7 activity was quantified using the Caspase-Glo 3/7 Assay (Promega), according to manufacturer's instructions. Briefly, cells were plated in triplicate in 96-well plates and transfected with the appropriate oligonucleotide. Forty-eight hours after transfection, cells were cultured in the presence or absence of serum for twenty-four hours. Cells were then incubated for 1 h with the caspase substrates, and luminescence was quantified.

This note sets out measurements from US20170226507A1, “COORDINATE CONTROL OF PATHOGENIC SIGNALING BY THE MIR-130/301 FAMILY IN PULMONARY HYPERTENSION AND FIBROPROLIFERATIVE DISEASES” (The Brigham and Women's Hospital, Inc., priority 2014, published 2017).

“Also recorded” adds a separate entry of the source.

Consider “tiny-LNA-130: fully LNA-modified tiny LNA oligonucleotide 5′-ATTGCACT-3′ (SEQ ID NO: 3) complementary to the seed region of the miR-130/301 family (all LNA, backbone and methylation of C not given here)”, for which the “expression of all miR-130/301 family members” value with miR-130/301 family is “down-regulated; also recorded: effective inhibitors of the entire miR-130/301 family”. Also, the entries for the “caspase 3/7 activity” value in the series on PASMCs (24 h serum deprivation) and in the series on PASMCs (serum-replete conditions) were “no significant modulation” and “No significant modulation”, respectively.
